Experimental findings from PMC2987581 (Tetrahedron letters, 2010) are described below.

Assay [1] concerns the target T1, trypsin (Bos taurus, UniProt P00760).
T1 sequence (P00760 24-246): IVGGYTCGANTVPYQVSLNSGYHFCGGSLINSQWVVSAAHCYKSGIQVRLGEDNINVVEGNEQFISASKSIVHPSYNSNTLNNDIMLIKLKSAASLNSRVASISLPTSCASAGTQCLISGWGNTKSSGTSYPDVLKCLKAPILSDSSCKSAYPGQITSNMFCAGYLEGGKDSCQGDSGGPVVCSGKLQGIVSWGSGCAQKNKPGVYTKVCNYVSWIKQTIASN
As to the kind of experiment: serine protease inhibition screen, trypsin. It counts as biochemical. Particulars: at 100 μM, the highest concentration tested.

The target of assay [2] is aspartic protease BACE1 (Homo sapiens, UniProt P56817). Kind of assay: aspartic protease inhibition, BACE1. Format: biochemical. Particulars: at concentrations up to 30 μM.
Chain of aspartic protease BACE1 (P56817 46-501): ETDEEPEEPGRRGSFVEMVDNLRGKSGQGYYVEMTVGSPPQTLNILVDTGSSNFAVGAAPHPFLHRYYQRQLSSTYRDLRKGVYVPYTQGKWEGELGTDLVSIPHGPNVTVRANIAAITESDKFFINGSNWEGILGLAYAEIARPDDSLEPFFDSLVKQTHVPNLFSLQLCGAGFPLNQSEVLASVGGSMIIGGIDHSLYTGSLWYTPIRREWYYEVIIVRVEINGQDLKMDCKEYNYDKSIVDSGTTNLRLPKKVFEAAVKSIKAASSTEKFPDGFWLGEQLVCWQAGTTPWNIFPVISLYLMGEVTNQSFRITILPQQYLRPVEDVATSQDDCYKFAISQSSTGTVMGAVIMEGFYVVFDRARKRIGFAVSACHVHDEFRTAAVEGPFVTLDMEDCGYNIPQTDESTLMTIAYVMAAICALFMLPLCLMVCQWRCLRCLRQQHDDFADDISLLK

For the compound `C/C=C1\NC(=O)[C@@H](NC(=O)[C@@H](NC(=O)[C@H](C)NC(=O)CCC)C(C)C)[C@@H](C)OC(=O)[C@H](C(C)C)NC(=O)[C@H](Cc2ccc(O)c(Br)c2)N(C)C(=O)[C@H](Cc2ccccc2)N2C(=O)[C@H](CC[C@H]2O)NC1=O` [Compound 2, Bouillomide B], the inhibition of trypsin entry in assay [1] was “no inhibition”.

As to `C/C=C1\NC(=O)[C@@H](NC(=O)[C@@H](NC(=O)[C@H](C)NC(=O)CCC)C(C)C)[C@@H](C)OC(=O)[C@H](C(C)C)NC(=O)[C@H](Cc2ccc(O)cc2)N(C)C(=O)[C@H](Cc2ccccc2)N2C(=O)[C@H](CC[C@H]2O)NC1=O` [Compound 1, Bouillomide A], the “inhibition of BACE1” value in assay [2] is “does not inhibit”. Also, the inhibition of trypsin entry in assay [1] is listed as “no inhibition”.
